The values below come from patent US6799123B2, “Dissolution test equipment and method” (priority 2001, dated 2004).

SMILES strings stand for the structures. Read-outs that look alike come from different tables or passages of the source.

The conditions of series [1]: in vivo blood plasma concentration profile from literature; cited from earlier work.
For series [2] the following is noted: cited from earlier work.
Series [3] in a line: Single cell dissolution test (comparative). Type of series: physicochemical. As to conditions: flow rate optimized to match in vivo data. The protocol: Equipment was set up as follows: A continuous, stirred, filtration cell, such as the Amicon stirred ultrafiltration cell model 8050, available from Millipore Corporation, was equipped with a peristaltic pump to feed fluid into the cell at a rate in the range 3-10 ml/min. The filtrate from the cell was passed into a 1 cm path length flow-through quartz uv cell. The uv cell is situated in a suitable uv spectrophotometer, such as the Genesys 2, UV Spectrophotemer available from Spectronic Instruments. The filtration cell was fitted with a 3 micron filter to retain undissolved particles. 60 ml of simulated intestinal fluid pH 7.4 was added to the filtration cell, and then simulated intestinal fluid was fed into it via the pump at a flow rate of 6.5 ml/min. This was continued until the absorbance at 276 nm as measured in the uv cell was constant. 50 mg of diclofenac sodium was then added to the filtration cell. The uv absorbance at 276 nm of the effluent from the cell was recorded through the duration of the test. The concentration was calculated using a suitably determined calibration curve. In Table 1 the data from this experiment is compared with in vivo data reported in U.S. Pat. No. 4,510,128. The flow rate for this example was optimized such that the uv absorbance returned to baseline within approximately the same time (8 hours) as the in vivo data.

Regarding `CC(C)Cc1ccc(C(C)C(=O)O)cc1` (stereo not drawn) [ibuprofen], in series [1], the “t10 for in vivo data (time after Cmax to fall to 10% of Cmax)” value is 410 min and the “tmax for in vivo data” value was 1.17 h.

Regarding `O=C(O)Cc1ccccc1Nc1c(Cl)cccc1Cl` [diclofenac sodium], the solubility result in series [2] (low pH of the stomach) was “essentially insoluble”; in series [2] (near neutral conditions of the upper GI) it was “soluble”. The “time for uv absorbance of effluent to return to baseline” value in series [3] is ~8 h.

As to `CC(=O)Nc1ccc(O)cc1` [paracetamol], in series [1], the “t10 for in vivo data (time after Cmax to fall to 10% of Cmax)” value is 510 min and the “tmax for in vivo data” value is 0.55 h.

Take `CN[C@@H](C)[C@@H](O)c1ccccc1` [pseudoephedrine]: in series [1], the “t10 for in vivo data (time after Cmax to fall to 10% of Cmax)” value is 1380 min and the “tmax for in vivo data” value was 1.5 h.
